Activity calls are given as the source filed them.
Experiments:
[1] = molecular target: T1, Corticotropin-releasing factor receptor 2/Corticotropin-releasing factor-binding protein (Homo sapiens, UniProt P24387+Q13324); experiment: activators of CRF receptor 2 with binding protein – uHTS hits, confirmation (AID 602473); assay type: functional; details: read-out: EC50_Mean
T1 sequence (Q13324 whole entry): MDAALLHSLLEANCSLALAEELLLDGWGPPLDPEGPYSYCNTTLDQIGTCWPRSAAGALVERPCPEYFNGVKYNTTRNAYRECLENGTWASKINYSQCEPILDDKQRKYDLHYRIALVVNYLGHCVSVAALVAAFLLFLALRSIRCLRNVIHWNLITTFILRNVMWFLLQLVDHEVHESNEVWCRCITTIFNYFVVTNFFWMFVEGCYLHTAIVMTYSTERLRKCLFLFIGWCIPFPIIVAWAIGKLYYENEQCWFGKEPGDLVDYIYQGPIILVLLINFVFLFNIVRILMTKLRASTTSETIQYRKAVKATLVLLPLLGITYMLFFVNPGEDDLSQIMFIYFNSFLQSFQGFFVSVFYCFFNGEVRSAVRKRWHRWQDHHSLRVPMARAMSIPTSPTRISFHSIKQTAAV
T1 sequence (P24387 whole entry): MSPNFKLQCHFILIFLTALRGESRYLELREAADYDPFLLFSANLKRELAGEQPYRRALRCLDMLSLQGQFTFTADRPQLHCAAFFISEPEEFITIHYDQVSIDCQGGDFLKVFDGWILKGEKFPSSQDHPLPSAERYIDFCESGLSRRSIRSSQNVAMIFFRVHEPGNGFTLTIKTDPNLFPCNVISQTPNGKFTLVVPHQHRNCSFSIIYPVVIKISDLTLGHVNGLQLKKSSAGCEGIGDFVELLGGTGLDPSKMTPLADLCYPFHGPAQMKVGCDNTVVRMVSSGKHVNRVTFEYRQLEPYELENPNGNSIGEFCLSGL

[2] = molecular target: T1, Corticotropin-releasing factor receptor 2/Corticotropin-releasing factor-binding protein; experiment: Dose Response confirmation of uHTS hits for small molecule antagonists of the CRF-binding protein and CRF-R2 receptor complex.; assay type: functional; details: read-out: IC50_Mean
[3] = cytotoxicity in HEK-293T cells, dose response, cytotoxicity control for BCR NF-kB inhibitor project, luminescence, B-cell screen hits (AID 489021); assay type: functional, cell-based;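 further: HEK-293T cells carrying an NF-kB luciferase reporter; cells exposed to compound for about 14 hours before viability readout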
[4] = inhibitors of Vif binding to APOBEC3G peptide, primary screen, biochemical, TR-FRET, GST-Vif 1-94, biotin-A3G peptide, dose response retest (AID 1117319); assay type: functional;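 further: TR-FRET signal of purified GST-Vif binding a biotinylated A3G peptide; inhibitors lower the FRET signal by blocking Vif and A3G binding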
[5] = molecular target: Eukaryotic translation initiation factor 4E (Mus musculus, UniProt P63073); experiment: eIF4E–eIF4G protein interaction inhibitors, dose response, biochemical, TR-FRET (AID 855); assay type: functional;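 further: potency for disrupting eIF4E binding to eIF4GI seen as loss of FRET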
Perilipin-1/ABHD5 = Perilipin-1/ABHD5 (Homo sapiens, UniProt O60240+Q8WTS1); experiment: Luminescence-based biochemical high throughput dose response assay for inhibitors of the interaction of the lipase co-activator protein, abhydrolase domain containing 5 (ABHD5) with perilipin-1 (PLIN1) (2K validation set). [Related pubchem assays (depositor defined):AID493027, AID493057]
[6] = molecular target: 1-acylglycerol-3-phosphate O-acyltransferase ABHD5/Perilipin-5 (Homo sapiens, UniProt Q00G26+Q8WTS1); experiment: Luminescence-based biochemical high throughput dose response assay for inhibitors of the interaction of the lipase co-activator protein, abhydrolase domain containing 5 (ABHD5) with perilipin-5 (MLDP; PLIN5) (2K validation set). [Related pubchem assays (depositor defined):AID493035, AID493241]
Trypsin = Trypsin (Sus scrofa, UniProt P00761); experiment: porcine trypsin inhibitors, dose response, selectivity assay for Rce1 protease inhibitor project, biochemical, quenched peptide fluorescence, cherry-pick (AID 488789)
CAAX prenyl protease 2 = molecular target: T2, CAAX prenyl protease 2 (Saccharomyces cerevisiae S288c, UniProt Q03530); assay type: biochemical
T2 sequence (Q03530 whole entry): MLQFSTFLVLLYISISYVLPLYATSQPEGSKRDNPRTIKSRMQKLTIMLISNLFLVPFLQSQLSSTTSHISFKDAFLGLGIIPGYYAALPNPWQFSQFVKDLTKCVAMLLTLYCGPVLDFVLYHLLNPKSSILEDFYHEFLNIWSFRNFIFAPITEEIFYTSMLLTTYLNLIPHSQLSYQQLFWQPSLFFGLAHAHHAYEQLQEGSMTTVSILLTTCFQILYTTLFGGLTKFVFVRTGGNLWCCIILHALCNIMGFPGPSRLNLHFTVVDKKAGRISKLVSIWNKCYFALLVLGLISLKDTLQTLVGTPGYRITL

INS1 = experiment: beta cell apoptosis inhibitors, cytokine rescue, dose response, luminescence, retest (AID 449756); assay type: functional, cell-based; details: Rattus norvegicus;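 further: cell death triggered by IL-1 beta plus TNF-alpha plus IFN-gamma mixture; protective hits raise ATP signal compared with cytokine alone wells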
ORF 73 = molecular target: T3, ORF 73 (Human herpesvirus 8, UniProt O40947); experiment: inhibitors of C-LANA binding to LBS DNA, dose response, biochemical, fluorescence polarization, cherry-picked samples (AID 504725); design: species or system Human gammaherpesvirus 8;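 further: fluorescence polarization of a labeled DNA duplex reporting LANA DNA binding; potency is for inhibitors that block LANA binding to the DNA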
T3 sequence (O40947 whole entry): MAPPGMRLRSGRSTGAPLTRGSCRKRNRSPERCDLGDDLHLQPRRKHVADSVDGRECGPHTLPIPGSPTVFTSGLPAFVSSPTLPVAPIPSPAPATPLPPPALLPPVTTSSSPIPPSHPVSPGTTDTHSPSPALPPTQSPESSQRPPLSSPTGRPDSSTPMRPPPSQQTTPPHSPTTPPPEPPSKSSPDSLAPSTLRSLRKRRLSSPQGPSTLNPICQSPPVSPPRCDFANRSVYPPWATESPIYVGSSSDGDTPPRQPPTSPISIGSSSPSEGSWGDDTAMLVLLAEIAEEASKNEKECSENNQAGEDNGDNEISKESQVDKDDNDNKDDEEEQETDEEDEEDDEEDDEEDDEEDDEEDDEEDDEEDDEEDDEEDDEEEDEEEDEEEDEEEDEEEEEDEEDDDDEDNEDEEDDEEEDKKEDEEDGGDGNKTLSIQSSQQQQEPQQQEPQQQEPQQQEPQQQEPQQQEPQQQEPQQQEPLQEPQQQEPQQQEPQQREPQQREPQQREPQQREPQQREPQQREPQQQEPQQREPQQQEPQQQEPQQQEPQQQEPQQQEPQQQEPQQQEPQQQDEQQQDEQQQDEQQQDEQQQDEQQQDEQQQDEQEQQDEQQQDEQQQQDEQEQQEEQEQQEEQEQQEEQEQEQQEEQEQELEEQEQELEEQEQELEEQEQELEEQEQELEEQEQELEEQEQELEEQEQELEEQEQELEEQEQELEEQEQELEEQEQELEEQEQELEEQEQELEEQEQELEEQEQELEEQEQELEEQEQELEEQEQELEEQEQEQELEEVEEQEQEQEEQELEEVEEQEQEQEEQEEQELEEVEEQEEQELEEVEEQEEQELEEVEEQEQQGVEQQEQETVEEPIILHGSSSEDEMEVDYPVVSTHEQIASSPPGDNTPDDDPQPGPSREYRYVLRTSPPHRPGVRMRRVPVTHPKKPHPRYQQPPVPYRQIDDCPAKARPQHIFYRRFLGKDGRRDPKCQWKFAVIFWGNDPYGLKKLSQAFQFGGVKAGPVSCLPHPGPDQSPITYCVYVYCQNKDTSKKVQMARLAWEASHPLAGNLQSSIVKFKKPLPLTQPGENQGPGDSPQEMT

HeLa = experiment: HeLa cell cytotoxicity, dose response, cytotoxicity control, 24 h, cherry-picked samples (AID 504726); assay type: functional, cell-based; details: Homo sapiens;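 further: potency for cytotoxicity as loss of luminescence signal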
Genome polyprotein = Genome polyprotein (dengue virus type 2, UniProt P29990); experiment: Dengue-2 NS5 methyltransferase inhibitors, primary screen, biochemical, confirmation dose response (AID 588689); assay type: functional
Nonstructural protein 1 = Nonstructural protein 1 (Influenza A virus, UniProt Q194T2); assay type: functional, Influenza A virus (A/California/07/2009(H1N1))
[7] = molecular target: T4, Carboxy-terminal domain RNA polymerase II polypeptide A small phosphatase 1 (Homo sapiens, UniProt Q9GZU7); experiment: inhibitors of CTDSP1, concentration-response testing, biochemical assay, absorbance-based, actives from ultra-high-throughput screening (AID 540297); assay type: functional
T4 sequence (Q9GZU7 whole entry): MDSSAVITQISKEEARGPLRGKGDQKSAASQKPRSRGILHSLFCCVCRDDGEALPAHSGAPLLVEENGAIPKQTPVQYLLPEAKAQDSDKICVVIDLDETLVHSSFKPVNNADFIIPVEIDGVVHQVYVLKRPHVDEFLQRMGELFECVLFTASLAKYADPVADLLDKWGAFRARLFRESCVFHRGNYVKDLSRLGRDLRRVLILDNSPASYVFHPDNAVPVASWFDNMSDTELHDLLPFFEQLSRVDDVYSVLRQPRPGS

Caspase-6 = Caspase-6 (Homo sapiens, UniProt P55212); experiment: human caspase-6 inhibitors, dose response, biochemical, VEID-R110 fluorescence, cherry-pick (AID 720632)
Sequence of Caspase-6 (P55212 24-179 limits assumed): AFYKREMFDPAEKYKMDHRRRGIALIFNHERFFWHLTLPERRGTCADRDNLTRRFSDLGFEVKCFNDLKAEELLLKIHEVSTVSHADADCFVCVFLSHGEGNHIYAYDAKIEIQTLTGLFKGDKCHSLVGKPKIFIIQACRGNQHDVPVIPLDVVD
Sequence of Caspase-6 (P55212 194-293 limits assumed): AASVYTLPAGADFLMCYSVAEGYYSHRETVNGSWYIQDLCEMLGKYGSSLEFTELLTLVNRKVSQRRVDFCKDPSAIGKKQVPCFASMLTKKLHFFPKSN

Sequence of Nonstructural protein 1 (Q194T2 whole entry, the tested form may be a part): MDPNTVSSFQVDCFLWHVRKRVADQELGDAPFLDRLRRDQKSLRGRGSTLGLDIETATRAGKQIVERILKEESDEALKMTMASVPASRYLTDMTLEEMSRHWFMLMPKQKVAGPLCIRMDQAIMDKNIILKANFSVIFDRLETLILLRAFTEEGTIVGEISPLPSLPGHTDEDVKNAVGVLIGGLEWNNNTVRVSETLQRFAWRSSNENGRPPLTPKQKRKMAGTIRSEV
Sequence of Genome polyprotein (P29990 2492-3391 limits assumed): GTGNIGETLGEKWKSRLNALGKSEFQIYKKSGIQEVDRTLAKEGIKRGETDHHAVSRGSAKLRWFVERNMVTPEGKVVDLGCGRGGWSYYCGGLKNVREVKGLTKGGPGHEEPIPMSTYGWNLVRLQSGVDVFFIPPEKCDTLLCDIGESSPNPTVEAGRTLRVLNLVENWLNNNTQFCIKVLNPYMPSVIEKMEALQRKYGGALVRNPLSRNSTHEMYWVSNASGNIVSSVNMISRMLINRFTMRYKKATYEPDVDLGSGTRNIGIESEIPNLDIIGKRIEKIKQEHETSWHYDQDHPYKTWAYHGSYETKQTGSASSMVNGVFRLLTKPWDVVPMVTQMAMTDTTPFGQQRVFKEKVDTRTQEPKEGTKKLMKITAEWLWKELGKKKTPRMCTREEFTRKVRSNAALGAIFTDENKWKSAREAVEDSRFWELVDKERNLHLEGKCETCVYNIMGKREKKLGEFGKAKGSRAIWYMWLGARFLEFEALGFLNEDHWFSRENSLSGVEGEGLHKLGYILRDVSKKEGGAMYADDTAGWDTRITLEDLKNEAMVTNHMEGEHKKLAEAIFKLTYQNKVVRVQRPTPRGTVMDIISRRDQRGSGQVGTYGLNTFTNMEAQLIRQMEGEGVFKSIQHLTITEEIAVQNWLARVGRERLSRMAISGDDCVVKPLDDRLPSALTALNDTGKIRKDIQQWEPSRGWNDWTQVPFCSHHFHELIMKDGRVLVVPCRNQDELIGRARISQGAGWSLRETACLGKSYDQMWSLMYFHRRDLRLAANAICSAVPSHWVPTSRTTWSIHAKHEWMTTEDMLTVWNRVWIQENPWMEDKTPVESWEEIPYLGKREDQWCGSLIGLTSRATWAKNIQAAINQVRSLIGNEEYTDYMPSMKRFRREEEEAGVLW
Sequence of 1-acylglycerol-3-phosphate O-acyltransferase ABHD5/Perilipin-5 (Q00G26 whole entry, the tested form may be a part): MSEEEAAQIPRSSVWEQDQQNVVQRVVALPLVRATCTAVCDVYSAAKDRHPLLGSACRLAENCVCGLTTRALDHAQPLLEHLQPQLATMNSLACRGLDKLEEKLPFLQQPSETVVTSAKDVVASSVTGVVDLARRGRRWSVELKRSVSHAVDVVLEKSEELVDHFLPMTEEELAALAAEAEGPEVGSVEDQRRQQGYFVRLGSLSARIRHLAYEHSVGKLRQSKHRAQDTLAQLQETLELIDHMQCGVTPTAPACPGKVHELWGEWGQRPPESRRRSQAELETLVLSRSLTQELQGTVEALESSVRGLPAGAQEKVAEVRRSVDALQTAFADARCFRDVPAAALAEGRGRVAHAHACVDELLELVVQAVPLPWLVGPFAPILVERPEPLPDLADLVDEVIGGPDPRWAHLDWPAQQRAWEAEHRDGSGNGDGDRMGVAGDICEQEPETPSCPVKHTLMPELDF
Sequence of 1-acylglycerol-3-phosphate O-acyltransferase ABHD5/Perilipin-5 (Q8WTS1 whole entry, the tested form may be a part): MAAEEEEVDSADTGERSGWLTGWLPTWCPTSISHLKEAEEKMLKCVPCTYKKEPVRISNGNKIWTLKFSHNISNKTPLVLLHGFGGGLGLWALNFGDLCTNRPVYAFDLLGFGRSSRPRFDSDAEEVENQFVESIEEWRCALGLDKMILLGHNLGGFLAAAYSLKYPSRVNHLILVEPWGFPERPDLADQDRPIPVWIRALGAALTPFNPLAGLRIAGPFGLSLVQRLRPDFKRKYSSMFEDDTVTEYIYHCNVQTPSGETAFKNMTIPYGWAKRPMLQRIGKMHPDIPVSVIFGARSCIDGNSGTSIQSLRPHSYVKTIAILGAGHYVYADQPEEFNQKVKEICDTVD
Sequence of Perilipin-1/ABHD5 (Q8WTS1 whole entry, the tested form may be a part): as above
Sequence of Perilipin-1/ABHD5 (O60240 whole entry, the tested form may be a part): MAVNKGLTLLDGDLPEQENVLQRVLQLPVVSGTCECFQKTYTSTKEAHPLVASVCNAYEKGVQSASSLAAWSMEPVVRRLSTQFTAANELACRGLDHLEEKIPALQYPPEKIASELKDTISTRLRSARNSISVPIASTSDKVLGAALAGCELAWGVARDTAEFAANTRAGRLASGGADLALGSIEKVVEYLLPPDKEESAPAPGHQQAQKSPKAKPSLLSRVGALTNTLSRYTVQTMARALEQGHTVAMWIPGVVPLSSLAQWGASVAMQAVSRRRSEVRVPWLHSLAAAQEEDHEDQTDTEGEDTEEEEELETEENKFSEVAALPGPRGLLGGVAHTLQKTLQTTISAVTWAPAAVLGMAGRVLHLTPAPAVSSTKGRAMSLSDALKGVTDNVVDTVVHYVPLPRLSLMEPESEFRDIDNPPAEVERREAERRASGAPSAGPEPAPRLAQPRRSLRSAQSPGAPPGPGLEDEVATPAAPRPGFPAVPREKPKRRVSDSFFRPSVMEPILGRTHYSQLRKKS
Sequence of Trypsin (P00761 whole entry): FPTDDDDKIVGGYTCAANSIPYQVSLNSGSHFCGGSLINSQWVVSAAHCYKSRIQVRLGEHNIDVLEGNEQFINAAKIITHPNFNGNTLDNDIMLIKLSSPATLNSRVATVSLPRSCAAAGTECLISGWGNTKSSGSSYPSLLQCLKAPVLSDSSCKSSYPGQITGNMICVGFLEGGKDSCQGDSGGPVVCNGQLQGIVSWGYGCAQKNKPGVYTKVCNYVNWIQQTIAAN
Sequence of Eukaryotic translation initiation factor 4E (P63073 whole entry, the tested form may be a part): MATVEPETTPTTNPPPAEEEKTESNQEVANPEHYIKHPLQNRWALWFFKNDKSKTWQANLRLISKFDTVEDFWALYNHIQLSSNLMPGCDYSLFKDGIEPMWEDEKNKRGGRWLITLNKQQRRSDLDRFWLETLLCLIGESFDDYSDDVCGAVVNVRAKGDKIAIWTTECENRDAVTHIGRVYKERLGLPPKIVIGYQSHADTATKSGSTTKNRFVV

With `COc1ccc(OC)c(NC(=O)c2[nH]c(C)c(C(C)=O)c2C)c1` as the compound, how does the EC50 [1] read?
The EC50 was > 53 µM (inactive).

What about the IC50 [2] of the same compound?
The IC50 was > 47.1 µM (inactive).

What about the IC50 [3] of the same compound?
The IC50 was > 80 µM (inactive).

And the IC50 [4]?
The IC50 was > 100 µM (active).

Which results are given for `COc1cc(/C=C(\C#N)C(=O)N2CCc3ccccc32)ccc1O`?
IC50 [5]: 50 µM (inactive); IC50 (Perilipin-1/ABHD5): 21.4 µM (inactive); IC50 [6]: > 26.5 µM (inactive)

Which AC50 (Trypsin) does the source give for `COc1ccc(-c2c[n+]3c4n2CCCCC4=C(c2ccc(Br)cc2)C3)cc1` here?
Its AC50 is 3.58 µM (active).

What about the AC50 (CAAX prenyl protease 2) of the same compound?
Its AC50 is 1.87 µM (active).

And the AC50 (INS1)?
Its AC50 is 2.88 µM (active).

For `COC(=O)C(NC(=O)C(C)NC(=O)OCc1ccccc1)C(C)C` (stereo not drawn), which AC50 (ORF 73) is on record?
The AC50 was 70.8 µM (active).

What about the AC50 (HeLa) of the same compound?
The AC50 was 68.2 µM (active).

For `O=C(O)Cc1ccc(N=Nc2c(O)c(C(=O)O)cc3ccccc23)cc1`, which IC50 (Genome polyprotein) is on record?
Its IC50 is 68.1 µM (active).

What about the IC50 (Nonstructural protein 1) of the same compound?
Its IC50 is 46 µM (active).

What about the AC50 (ORF 73) of the same compound?
The AC50 was 33.6 µM (active).

What about the AC50 (HeLa) of the same compound?
Its AC50 is 303 µM (active).

What about the IC50 [7] of the same compound?
The IC50 was 3.6 µM (active).

What about the AC50 (Caspase-6) of the same compound?
The AC50 was 7.16 µM (active).
